The numbers were not newly measured in patent US20110274624A1, “CONTRAST AGENTS IN POROUS PARTICLES” (WILLIAM MARSH RICE UNIVERSITY, priority 2010, published 2011), which cites them from elsewhere.

Like-named read-outs stand apart in the source and are kept apart here.

As for `CNC(=O)CN(CCN(CCN(CC(=O)[O-])CC(=O)NC)CC(=O)[O-])CC(=O)[O-].[Gd+3]` [Gd-DTPA-BMA], the “r1 per Gd^3+ ion” value (1.41T) is given as 3.6 (1. 41T) mM^−1s^−1.

Take `O=C([O-])CN1CCN(CC(=O)[O-])CCN(CC(=O)[O-])CCN(CC(=O)[O-])CC1.[Gd+3]` [Gd-DOTA]: the “r1 per Gd^3+ ion” value (1.41T) is 3.1 (1.41T) mM^−1s^−1.

Consider `O=C([O-])CN(CCN(CC(=O)[O-])CC(=O)[O-])CCN(CC(=O)[O-])CC(=O)[O-].[Gd+3]` [MAG, Gd-DTPA], for which the “r1 per Gd^3+ ion” value reads like this: (1.41T) 3.4 (1.41T) mM^−1s^−1; (1.5T) approximately 4 mM⁻¹ s⁻¹.

As to `CC(O)CN1CCN(CC(=O)[O-])CCN(CC(=O)[O-])CCN(CC(=O)[O-])CC1.[Gd+3]` (stereo not shown) [Gd-HP-DO3A], the “r1 per Gd^3+ ion” value (1.41T) is 3.2 (1. 41T) mM^−1s^−1.

Take `O=C([O-])CN(CCN(CC(=O)[O-])CC(=O)[O-])CCN(CC(=O)[O-])C(COCc1ccccc1)C(=O)[O-].[Gd+3]` (stereo not shown) [Gd-BOPTA]: the “r1 per Gd^3+ ion” value (1.41T) is 4.1 (1. 41T) mM^−1s^−1.

In the case of `[Gd+3]` [Gd^3+ ion], where the note is “field not stated”, the “longitudinal relaxivity r1” value was approximately 8 mM⁻¹ s⁻¹.
